Test results reported in ChEMBL document CHEMBL1201861, “Genomics of Drug Sensitity in Cancer screening data, Wellcome Trust Sanger Institute”.

Legend:
Capan-2 = experiment: cells; type: functional, cell-based, Homo sapiens; settings: Homo sapiens, Capan-2;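 note: Capan-2 cell growth inhibition, read out with a viability assay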
Description: SANGER: Inhibition of human Capan-2 cell growth in a cell viability assay.

Detroit 562 = experiment: cells; type: functional, cell-based, Homo sapiens; settings: Homo sapiens, Detroit 562;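 note: growth inhibition of human Detroit 562 cells, read out by a cell viability assay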
Description: SANGER: Inhibition of human Detroit562 cell growth in a cell viability assay.

EHEB = experiment: cells; type: functional, cell-based, Homo sapiens; settings: Homo sapiens, EHEB;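 note: growth inhibition of human EHEB cells, read out with a cell viability assay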
Description: SANGER: Inhibition of human EHEB cell growth in a cell viability assay.

GP5d = experiment: cells; type: functional, cell-based, Homo sapiens; settings: Homo sapiens, GP5d;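 note: growth inhibition of human GP5d cells, read out with a cell viability assay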
Description: SANGER: Inhibition of human GP5d cell growth in a cell viability assay.

HCC1599 = experiment: cells; type: functional, cell-based, Homo sapiens; settings: Homo sapiens, HCC1599;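 note: growth inhibition of HCC1599 cells, read out in a cell viability assay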
Description: SANGER: Inhibition of human HCC1599 cell growth in a cell viability assay.

HCC1806 = experiment: cells; type: functional, cell-based, Homo sapiens; settings: Homo sapiens, HCC1806;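 note: growth inhibition of the cancer cell line, determined with a cell viability assay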
Description: SANGER: Inhibition of human HCC1806 cell growth in a cell viability assay.

HCC38 = experiment: cells; type: functional, cell-based, Homo sapiens; settings: Homo sapiens, HCC38;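 note: cell viability assay on the human HCC38 cell line, with IC50 marking the concentration that inhibits cell growth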
Description: SANGER: Inhibition of human HCC38 cell growth in a cell viability assay.

HCT-15 = experiment: cells; type: functional, cell-based, Homo sapiens; settings: Homo sapiens, HCT-15;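 note: cell viability readout, IC50 reflecting suppression of HCT-15 cell growth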
Description: SANGER: Inhibition of human HCT-15 cell growth in a cell viability assay.

HT-1376 = experiment: cells; type: functional, cell-based, Homo sapiens; settings: Homo sapiens, HT-1376
Description: SANGER: Inhibition of human HT-1376 cell growth in a cell viability assay.

HuO9 = experiment: cells; type: functional, cell-based, Homo sapiens; settings: Homo sapiens, HuO9;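 note: growth inhibition of HuO9 cells, read out with a cell viability assay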
Description: SANGER: Inhibition of human HuO9 cell growth in a cell viability assay.

IM-9 = experiment: SANGER: Inhibition of human IM-9 cell growth in a cell viability assay.; type: functional, cell-based; settings: Homo sapiens, IM-9
IST-SL2 = experiment: cells; type: functional, cell-based, Homo sapiens; settings: Homo sapiens, IST-SL2;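 note: growth inhibition of human IST-SL2 cells, read out by a cell viability assay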
Description: SANGER: Inhibition of human IST-SL2 cell growth in a cell viability assay.

K052 = experiment: cells; type: functional, cell-based, Homo sapiens; settings: Homo sapiens, K052;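 note: Read-out from a cell viability assay, IC50 reflecting suppression of K052 cell growth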
Description: SANGER: Inhibition of human K052 cell growth in a cell viability assay.

KOSC-2 = experiment: cells; type: functional, cell-based, Homo sapiens; settings: Homo sapiens, KOSC-2;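 note: growth inhibition of KOSC-2 cells, read out by a cell viability assay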
Description: SANGER: Inhibition of human KOSC-2 cell growth in a cell viability assay.

KYSE-150 cell line = experiment: cells; type: functional, cell-based, Homo sapiens; settings: Homo sapiens, KYSE-150;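 note: growth inhibition of human KYSE-150 cells, read out with a cell viability assay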
Description: SANGER: Inhibition of human KYSE-150 cell growth in a cell viability assay.

LP-1 = experiment: cells; type: functional, cell-based, Homo sapiens; settings: Homo sapiens, LP-1;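 note: growth inhibition of human LP-1 cells, with the read-out taken from a cell viability assay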
Description: SANGER: Inhibition of human LP-1 cell growth in a cell viability assay.

M059J = experiment: cells; type: functional, cell-based, Homo sapiens; settings: Homo sapiens, M059J;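 note: growth inhibition of M059J cells, read out with a cell viability assay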
Description: SANGER: Inhibition of human M059J cell growth in a cell viability assay.

MDA-MB-134-VI = experiment: cells; type: functional, cell-based, Homo sapiens; settings: Homo sapiens, MDA-MB-134-VI
Description: SANGER: Inhibition of human MDA-MB-134-VI cell growth in a cell viability assay.

ME-180 = experiment: cells; type: functional, cell-based, Homo sapiens; settings: Homo sapiens, ME-180;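 note: cell viability assay measuring growth inhibition of ME-180 cells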
Description: SANGER: Inhibition of human ME-180 cell growth in a cell viability assay.

MHH-ES-1 = experiment: cells; type: functional, cell-based, Homo sapiens; settings: Homo sapiens, MHH-ES-1
Description: SANGER: Inhibition of human MHH-ES-1 cell growth in a cell viability assay.

MIA PaCa-2 = experiment: cells; type: functional, cell-based, Homo sapiens; settings: Homo sapiens, MIA PaCa-2;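 note: growth inhibition of MIA PaCa-2 cells, read out with a cell viability assay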
Description: SANGER: Inhibition of human MIA-PaCa-2 cell growth in a cell viability assay.

NCI-H1792 = experiment: cells; type: functional, cell-based, Homo sapiens; settings: Homo sapiens, NCI-H1792;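 note: growth inhibition of human NCI-H1792 cells, read out as cell viability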
Description: SANGER: Inhibition of human NCI-H1792 cell growth in a cell viability assay.

NCI-H1993 = experiment: cells; type: functional, cell-based, Homo sapiens; settings: Homo sapiens, NCI-H1993;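 note: growth inhibition of the cancer cell line, assessed with a cell viability assay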
Description: SANGER: Inhibition of human NCI-H1993 cell growth in a cell viability assay.

NCI-H358 = experiment: cells; type: functional, cell-based, Homo sapiens; settings: Homo sapiens, NCI-H358;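 note: growth inhibition of NCI-H358 human cells, read out with a cell viability assay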
Description: SANGER: Inhibition of human NCI-H358 cell growth in a cell viability assay.

NCI-H522 = experiment: cells; type: functional, cell-based, Homo sapiens; settings: Homo sapiens, NCI-H522;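 note: cell viability assay measuring growth inhibition of human NCI-H522 cells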
Description: SANGER: Inhibition of human NCI-H522 cell growth in a cell viability assay.

NCI-H64 = experiment: cells; type: functional, cell-based, Homo sapiens; settings: Homo sapiens, NCI-H64;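 note: growth inhibition of NCI-H64 cells, read out with a cell viability assay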
Description: SANGER: Inhibition of human NCI-H64 cell growth in a cell viability assay.

NCI-H719 = experiment: cells; type: functional, cell-based, Homo sapiens; settings: Homo sapiens, NCI-H719;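 note: growth inhibition of the cultured cell line, read out with a viability assay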
Description: SANGER: Inhibition of human NCI-H719 cell growth in a cell viability assay.

OAW-28 = experiment: cells; type: functional, cell-based, Homo sapiens; settings: Homo sapiens, OAW-28;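 note: growth inhibition of OAW-28 cells, read out with a cell viability assay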
Description: SANGER: Inhibition of human OAW-28 cell growth in a cell viability assay.

RMG-I = experiment: cells; type: functional, cell-based, Homo sapiens; settings: Homo sapiens, RMG-I;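 note: growth inhibition of human RMG-I cells, read out with a cell viability assay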
Description: SANGER: Inhibition of human RMG-I cell growth in a cell viability assay.

RPMI-2650 = experiment: cells; type: functional, cell-based, Homo sapiens; settings: Homo sapiens, RPMI-2650
Description: SANGER: Inhibition of human RPMI-2650 cell growth in a cell viability assay.

SJRH30 = experiment: cells; type: functional, cell-based, Homo sapiens; settings: Homo sapiens, SJRH30;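 note: growth inhibition of human SJRH30 cells, read out with a cell viability assay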
Description: SANGER: Inhibition of human SJRH30 cell growth in a cell viability assay.

SK-HEP1 = experiment: cells; type: functional, cell-based, Homo sapiens, SK-HEP-1; settings: Homo sapiens, SK-HEP1;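 note: cell viability readout used to quantify reduction in proliferation of human SK-HEP-1 cells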
Description: SANGER: Inhibition of human SK-HEP-1 cell growth in a cell viability assay.

SK-OV-3 = experiment: cells; type: functional, cell-based, Homo sapiens; settings: Homo sapiens, SK-OV-3;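 note: growth inhibition of SK-OV-3 human cells, read out with a cell viability assay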
Description: SANGER: Inhibition of human SK-OV-3 cell growth in a cell viability assay.

A 172 = experiment: cells; type: functional, cell-based, Homo sapiens; settings: Homo sapiens, A 172;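 note: growth inhibition of A172 cells, measured with a cell viability readout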
Description: SANGER: Inhibition of human A172 cell growth in a cell viability assay.

ABC-1 = experiment: cells; type: functional, cell-based, Homo sapiens; settings: Homo sapiens, ABC-1;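 note: growth inhibition of human ABC-1 cells, read out by a cell viability assay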
Description: SANGER: Inhibition of human ABC-1 cell growth in a cell viability assay.

BFTC-905 = experiment: cells; type: functional, cell-based, Homo sapiens; settings: Homo sapiens, BFTC-905
Description: SANGER: Inhibition of human BFTC-905 cell growth in a cell viability assay.

BL-70 = experiment: SANGER: Inhibition of human BL-70 cell growth in a cell viability assay.; type: functional, cell-based; settings: Homo sapiens, BL-70
CAKI-1 = experiment: cells; type: functional, cell-based, Homo sapiens; settings: Homo sapiens, CAKI-1;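 note: growth inhibition of CAKI-1 cells, measured by a cell viability assay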
Description: SANGER: Inhibition of human CAKI-1 cell growth in a cell viability assay.

CAL-12T = experiment: cells; type: functional, cell-based, Homo sapiens; settings: Homo sapiens, CAL-12T;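 note: growth inhibition of human CAL-12T cells, read out with a cell viability assay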
Description: SANGER: Inhibition of human CAL-12T cell growth in a cell viability assay.

CAL-51 = experiment: cells; type: functional, cell-based, Homo sapiens; settings: Homo sapiens, CAL-51;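 note: human CAL-51 cell line, growth inhibition read out via a cell viability assay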
Description: SANGER: Inhibition of human CAL-51 cell growth in a cell viability assay.

CAL-85-1 = experiment: cells; type: functional, cell-based, Homo sapiens; settings: Homo sapiens, CAL-85-1;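 note: growth inhibition of human CAL-85-1 cells, read out with a cell viability assay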
Description: SANGER: Inhibition of human CAL-85-1 cell growth in a cell viability assay.

U-698-M = experiment: cells; type: functional, cell-based, Homo sapiens; settings: Homo sapiens, U-698-M
Description: SANGER: Inhibition of human U-698-M cell growth in a cell viability assay.

U-251 = experiment: cells; type: functional, cell-based, Homo sapiens; settings: Homo sapiens, U-251;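 note: growth inhibition of human U-251 cells, read out through a cell viability assay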
Description: SANGER: Inhibition of human U251 cell growth in a cell viability assay.

UACC-893 = experiment: cells; type: functional, cell-based, Homo sapiens; settings: Homo sapiens, UACC-893
Description: SANGER: Inhibition of human UACC-893 cell growth in a cell viability assay.

CHP-212 = experiment: cells; type: functional, cell-based, Homo sapiens; settings: Homo sapiens, CHP-212
Description: SANGER: Inhibition of human CHP-212 cell growth in a cell viability assay.

D-423MG = experiment: cells; type: functional, cell-based, Homo sapiens; settings: Homo sapiens, D-423MG
Description: SANGER: Inhibition of human D-423MG cell growth in a cell viability assay.

KP-N-YN = experiment: cells; type: functional, cell-based, Homo sapiens; settings: Homo sapiens, KP-N-YN;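 note: growth inhibition of KP-N-YN cells, read out with a cell viability assay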
Description: SANGER: Inhibition of human KP-N-YN cell growth in a cell viability assay.

NCI-H1048 = experiment: cells; type: functional, cell-based, Homo sapiens; settings: Homo sapiens, NCI-H1048;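 note: growth inhibition of human NCI-H1048 cells, read out with a cell viability assay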
Description: SANGER: Inhibition of human NCI-H1048 cell growth in a cell viability assay.

N#Cc1c(O)c2c(-c3ccc(-c4ccccc4O)cc3)csc2[nH]c1=O
IC50 (Capan-2): > 1.02 µM | IC50 (Detroit 562): > 1.02 µM | IC50 (EHEB): 0.0633 µM | IC50 (GP5d): > 1.02 µM | IC50 (HCC1599): 0.278 µM | IC50 (HCC1806): > 1.02 µM | IC50 (HCC38): > 1.02 µM | IC50 (HCT-15): > 1.02 µM | IC50 (HT-1376): > 1.02 µM | IC50 (HuO9): > 1.02 µM | IC50 (IM-9): > 1.02 µM | IC50 (IST-SL2): > 1.02 µM | IC50 (K052): 0.791 µM | IC50 (KOSC-2): > 1.02 µM | IC50 (KYSE-150 cell line): > 1.02 µM | IC50 (LP-1): > 1.02 µM | IC50 (M059J): > 1.02 µM | IC50 (MDA-MB-134-VI): > 1.02 µM | IC50 (ME-180): > 1.02 µM | IC50 (MHH-ES-1): > 1.02 µM | IC50 (MIA PaCa-2): > 1.02 µM | IC50 (NCI-H1792): > 1.02 µM | IC50 (NCI-H1993): > 1.02 µM | IC50 (NCI-H358): > 1.02 µM | IC50 (NCI-H522): > 1.02 µM | IC50 (NCI-H64): > 1.02 µM | IC50 (NCI-H719): > 1.02 µM | IC50 (OAW-28): > 1.02 µM | IC50 (RMG-I): > 1.02 µM | IC50 (RPMI-2650): > 1.02 µM | IC50 (SJRH30): 0.495 µM | IC50 (SK-HEP1): > 1.02 µM | IC50 (SK-OV-3): > 1.02 µM | IC50 (A 172): > 1.02 µM | IC50 (ABC-1): > 1.02 µM | IC50 (BFTC-905): > 1.02 µM | IC50 (BL-70): 0.108 µM | IC50 (CAKI-1): > 1.02 µM | IC50 (CAL-12T): > 1.02 µM | IC50 (CAL-51): > 1.02 µM | IC50 (CAL-85-1): > 1.02 µM | IC50 (U-698-M): 0.219 µM | IC50 (U-251): > 1.02 µM | IC50 (UACC-893): > 1.02 µM | IC50 (CHP-212): > 1.02 µM

Nc1cccc2c1CN(C1CCC(=O)NC1=O)C2=O (stereo not given) [LENALIDOMIDE]
IC50 (Capan-2): > 5 µM | IC50 (D-423MG): > 5 µM | IC50 (Detroit 562): > 5 µM | IC50 (GP5d): > 5 µM | IC50 (HCC1806): > 5 µM | IC50 (HCC38): > 5 µM | IC50 (HCT-15): > 5 µM | IC50 (HT-1376): > 5 µM | IC50 (HuO9): > 5 µM | IC50 (KOSC-2): > 5 µM | IC50 (KP-N-YN): > 5 µM | IC50 (KYSE-150 cell line): > 5 µM | IC50 (M059J): > 5 µM | IC50 (ME-180): > 5 µM | IC50 (MHH-ES-1): > 5 µM | IC50 (MIA PaCa-2): > 5 µM | IC50 (NCI-H1048): > 5 µM | IC50 (NCI-H1792): > 5 µM | IC50 (NCI-H1993): > 5 µM | IC50 (NCI-H358): > 5 µM | IC50 (OAW-28): > 5 µM | IC50 (RMG-I): > 5 µM | IC50 (RPMI-2650): > 5 µM | IC50 (SJRH30): > 5 µM | IC50 (SK-HEP1): > 5 µM | IC50 (SK-OV-3): > 5 µM | IC50 (A 172): > 5 µM | IC50 (ABC-1): > 5 µM | IC50 (BFTC-905): > 5 µM | IC50 (CAKI-1): > 5 µM | IC50 (CAL-12T): > 5 µM | IC50 (CAL-51): > 5 µM | IC50 (CAL-85-1): > 5 µM | IC50 (U-251): > 5 µM | IC50 (UACC-893): > 5 µM | IC50 (CHP-212): > 5 µM

CN(C)C(=N)NC(=N)N [METFORMIN]
IC50 (D-423MG): 3260 µM | IC50 (Detroit 562): 16500 µM | IC50 (GP5d): > 20000 µM | IC50 (HCC1806): > 20000 µM | IC50 (HCT-15): 8890 µM | IC50 (HT-1376): 10400 µM | IC50 (KOSC-2): 3400 µM | IC50 (M059J): > 20000 µM | IC50 (ME-180): > 20000 µM | IC50 (MHH-ES-1): > 20000 µM | IC50 (MIA PaCa-2): > 20000 µM | IC50 (NCI-H1048): > 20000 µM | IC50 (NCI-H1792): > 20000 µM | IC50 (OAW-28): > 20000 µM | IC50 (RMG-I): > 20000 µM | IC50 (RPMI-2650): > 20000 µM | IC50 (SK-HEP1): > 20000 µM | IC50 (A 172): 17500 µM | IC50 (ABC-1): > 20000 µM | IC50 (BFTC-905): 11700 µM | IC50 (CAKI-1): > 20000 µM | IC50 (U-251): 9900 µM | IC50 (UACC-893): 9970 µM | IC50 (CHP-212): 9630 µM
